Data on 1 compound can be found in patent US11225505B2, “Antimicrobial polymyxin derivative compounds” (MONASH UNIVERSITY, priority 2015, dated 2022).

Values after ≈ are worked out from the molar mass of the structure shown. Where a SMILES comes first, the peptide text is derived from it. Bridges are numbered along the chain shown (N, C = ends). [ ]: non-standard residue; d: D form. The star is where a group is joined. X1 = O=C(c1ncc(Cl)cc1Cl)*; Dab = NCC[C@H](N)C(=O)O; Abu = CC[C@H](N)C(=O)O; Dap = NC[C@H](N)C(=O)O

Data set [1] has as its system Enterobacter cloacae FADDI-EC003. It counts as cell-based. The following applies: FADDI-EC003. A digest of the protocol: (§1)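 Broth microdilution MIC per CLSI in cation-adjusted Mueller-Hinton broth, lipopeptides tested as TFA salts. Polymyxin B sulphate served as control.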
Data set [2] relates to Enterobacter cloacae FADDI-EC006. It counts as cell-based. The following applies: FADDI-EC006. The method in brief:
as §1

Data set [3] relates to Klebsiella pneumoniae FADDI-KP032. It counts as cell-based. The conditions noted are these: FADDI-KP032. A digest of the protocol:
as §1

For the next data set, the system named is mouse kidney. The conditions noted are these: in vivo, 180 mg/kg. An excerpt:
Lesions were rated as follows: mild acute tubular damage with tubular dilation, prominent nuclei and a few pale tubular casts (Grade 1); severe acute tubular damage with necrosis of tubular epithelial cells and numerous tubular casts (Grade 2); acute cortical necrosis/infarction of tubules and glomeruli with or without papillary necrosis (Grade 3). The grades were given the following scores: grade 1=1, grade 2=4, and grade 3=10. The percentage of area of the kidney slice showing histological damage was scored as follows: <1%=0, 1 to <5%=1, 5 to <10%=2, 10 to <20%=3, 20 to <30%=4, 30 to <40%=5, and >40%=6. The overall kidney histological score was calculated as the product of the percentage score and grade score. These scores were then expressed as a semiquantitative score (Kidney Histological Score) on a scale of 0 to +5 for renal histological changes. […]
Lung infection was produced as follows. […] Bacterial burdens in lungs were determined at 2 h after inoculation (untreated controls) and 24 h later (untreated controls and compound-treated mice). […] The bacterial colonies on the agar plate were counted and the log10 CFU/lung in each mouse was calculated (FIG. 1).
The right kidney from each of the treated animals was removed and assessed for histological damage as described for Example 3. […]

A further data set concerns mice. The data set can be described thus: Acute toxicity observed in the mouse lung infection study. It counts as in vivo. The conditions noted are these: up to 180 mg/kg total dose (four times the polymyxin B dose). The procedure:
Lung infection was produced as follows. Mice (n=4) were anaesthetised by inhalation of 2% to 5% isoflurane in oxygen and rested in the supine position against a restraining board which was angled at 60-70° from the horizontal. Each mouse was inoculated with 25 μL of bacterial suspension in saline (˜10^6 bacterial cells in early logarithmic growth phase) sprayed directly into the trachea above the carina using a MicroSprayer® Aerosolizer (model IA-1C; Penn-Century, Philadelphia, Pa., USA). After discharge of the bacterial aerosol, mice were held upright on the restraining board for 2 min and then placed on a warm pad for recovery from anaesthesia. Treatment with polymyxin B and Compound 1, 3, 6 and 18 (intraperitoneal injection of dose-fractionated regimens across the daily dose) was initiated 2 h following inoculation. […] This was the highest dose of polymyxin B that could be safely administered without adverse effects, i.e. acute toxicity. Bacterial burdens in lungs were determined at 2 h after inoculation (untreated controls) and 24 h later (untreated controls and compound-treated mice). Animals were euthanised at 24 h by inhalation of overdose isoflurane. The skin on the chest and fore-paws of each animal was thoroughly cleansed with 70% ethanol and Betadine®. […] The bacterial colonies on the agar plate were counted and the log10 CFU/lung in each mouse was calculated (FIG. 1). […]

Turning to `CC[C@@H]1NC(=O)[C@@H](CC(C)C)NC(=O)[C@H](CCN)NC(=O)[C@@H](NC(=O)[C@H](CN)NC(=O)[C@@H](NC(=O)[C@H](CCN)NC(=O)c2ncc(Cl)cc2Cl)[C@@H](C)O)CCNC(=O)[C@H]([C@@H](C)O)NC(=O)[C@H](CCN)NC(=O)[C@H](CCN)NC1=O` [Compound 1] (X1-[Dab]T[Dap][Dab][Dab][dL][Abu][Dab][Dab]T; lactam 4-C), the Minimum inhibitory concentration is given as 2 mg/L (≈ 1.72 µM) in data set [1], 0.5 mg/L (≈ 0.431 µM) in data set [2] and 0.5 mg/L (≈ 0.431 µM) in data set [3]. For the same compound, the “histological damage to the kidneys (in words)” value in the data set with mouse kidney is “no histological damage”. For the same compound, the acute toxicity entry with mice is listed as “without any observable acute toxicity”.
